Test [1] deals with Cyclin-dependent kinase 2 (Homo sapiens, UniProt P24941). Description: Binding affinity to CDK2 (unknown origin).
For test [2], the system named is MCF7. Description: Antiproliferative activity against human MCF7 cells at 4 uM by CCK-8 assay. The class given is functional.
Test [3] has as its system MCF7. Description: Antiproliferative activity against human MCF7 cells by CCK-8 assay. The class given is functional, cell-based. (Tetrazolium dyes change colour on reduction, which living cells bring about.)

One may read the Ki as a measure of affinity in units of concentration, obtained from inhibition or displacement. A low value points to tighter binding. The term inhibition denotes the share of the control response that was lost under treatment. A low value points to little suppression. By IC50 is commonly meant the point on the concentration scale where inhibition reaches its midpoint. The low end stands for higher potency, the high end for lower potency.

Structures are written as SMILES.

In test [1], `CC(C)(C)n1nc(-c2cccc(NC(=O)/C(C#N)=C/c3ccc(O)cc3)c2)c2c(=O)[nH]cnc21` displayed an inhibition constant (Ki) of 0.52 µM.

As for `CCCC/C=C(\C#N)C(=O)Nc1cccc(-c2nn(C(C)(C)C)c3nc[nH]c(=O)c23)c1`, the Ki in test [1] was 11.6 µM. The same measure, in the same setting: under `CC(C)(C)n1nc(-c2cccc(NC(=O)/C(C#N)=C/c3ccccc3[N+](=O)[O-])c2)c2c(=O)[nH]cnc21` stands 12.3 µM; under `CC(C)(C)n1nc(-c2cccc(NC(=O)/C(C#N)=C/c3ccc([N+](=O)[O-])cc3)c2)c2c(=O)[nH]cnc21`, 1.95 µM. `CC(C)(C)n1nc(-c2cccc(NC(=O)/C(C#N)=C/c3ccccc3)c2)c2c(=O)[nH]cnc21` came in with a Ki in test [1] of 2.2 µM. The inhibition at 4 µM in the test on MCF7 [2] came to 30%. In the test with MCF7 [3], this compound returned a half-inhibitory concentration (IC50) of 21.7 µM. In the case of `CC(C)(C)n1nc(-c2cccc(NC(=O)/C(C#N)=C/c3ccccc3O)c2)c2c(=O)[nH]cnc21`, in test [1], the affinity, expressed as Ki, was 0.35 µM. This lies in the sub-micromolar range. As to `CC(C)(C)n1nc(-c2cccc(NC(=O)/C(C#N)=C/c3cccc(Cl)c3)c2)c2c(=O)[nH]cnc21`, the inhibition constant Ki in test [1] came out at 3.1 µM. Same read-out and setting: under `CC(C)(C)n1nc(-c2cccc(NC(=O)/C(C#N)=C/c3cccc(Br)c3)c2)c2c(=O)[nH]cnc21` stands 14.7 µM; under `CC(C)(C)n1nc(-c2cccc(NC(=O)/C(C#N)=C/c3ccc(Br)cc3)c2)c2c(=O)[nH]cnc21`, 3.63 µM.

On to `CC(C)(C)n1nc(-c2cccc(NC(=O)/C(C#N)=C/c3ccccc3Br)c2)c2c(=O)[nH]cnc21`, for which, in test [1], the affinity corresponds to a Ki of 1.31 µM. This Ki is about 2.8-fold lower than that of the compound before. The same measure, in the same setting: the same measure for `CC(C)(C)n1nc(-c2cccc(NC(=O)/C(C#N)=C/c3ccc(F)cc3)c2)c2c(=O)[nH]cnc21`: 2.87 µM. Compound `COc1ccc(/C=C(\C#N)C(=O)Nc2cccc(-c3nn(C(C)(C)C)c4nc[nH]c(=O)c34)c2)cc1` registered a Ki in test [1] of 9.7 µM. Still for that read-out and setting: under `Cc1cc(NS(=O)(=O)c2ccc(Nc3n[nH]c4nc[nH]c(=O)c34)cc2)no1` stands 4.84 µM; under `CC(C)(C)n1nc(-c2cccc(NC(=O)/C(C#N)=C/C=C/c3ccccc3)c2)c2c(=O)[nH]cnc21`, 6.25 µM. Still for that read-out and setting: the same measure for `CC(C)(C)n1nc(-c2cccc(NC(=O)/C(C#N)=C/c3cccc(C(F)(F)F)c3)c2)c2c(=O)[nH]cnc21`: 5.59 µM. On to `COc1cc([C@@H]2c3cc4c(cc3[C@@H](O[C@@H]3O[C@@H]5CO[C@@H](C)O[C@H]5[C@H](O)[C@H]3O)[C@H]3COC(=O)[C@H]23)OCO4)cc(OC)c1O` [ETOPOSIDE], for which, in the test on MCF7 [3], half-maximal inhibition (IC50) required 18.8 µM. This counts as double-digit micromolar. `CC(C)(C)/C=C(\C#N)C(=O)Nc1cccc(-c2nn(C(C)(C)C)c3nc[nH]c(=O)c23)c1` gave an inhibition constant (Ki) in test [1] of 2.57 µM. In the case of `CC(C)(C)n1nc(-c2cccc(NC(=O)/C(C#N)=C/c3cc([N+](=O)[O-])cc([N+](=O)[O-])c3)c2)c2c(=O)[nH]cnc21`, the affinity in test [1], expressed as Ki, was 1.64 µM. This Ki lies about 1.6-fold lower than the previous one. The same measure, in the same setting: the same measure for `CC(C)(C)n1nc(-c2cccc(NC(=O)/C(C#N)=C/c3ccc(C(=O)O)cc3)c2)c2c(=O)[nH]cnc21`: 1.4 µM; for `CC(C)(C)n1nc(-c2cccc(NC(=O)/C(C#N)=C/c3cccc([N+](=O)[O-])c3)c2)c2c(=O)[nH]cnc21`: 2.46 µM.

The record behind these values is ChEMBL document CHEMBL5126571, “Development of pyrazolo[3,4-d]pyrimidin-4-one scaffold as novel CDK2 inhibitors: Design, synthesis, and biological evaluation” (Bioorg Med Chem Lett, 2022).
